# “Also recorded” adds a separate entry of the source. Peptide text beside a SMILES is read from it. * marks the point of attachment. Tos = Cc1ccc(S(=O)(=O)*)cc1; CH2Cl = ClC*
# Legend:
# glioma cell lines = settings: inhibition of thrombin activity and blocking PAR1 activation; Shavit-Stein et al. 2018; cited from earlier work
# diabetic rats = settings: STZ-induced diabetes; Shavit-Stein et al. PLoS One 2019; cited from earlier work
# [1] = system: STZ-induced diabetic C57BL/6 mice; assay: Retinal function by ERG in STZ-induced diabetic mice; type: in vivo, mouse
# Experimental: Diabetes induction: Diabetes was induced in mice at age of 8 weeks by a single intraperitoneal injection of 150 mg/Kg STZ (Sigma-Aldrich). Blood glucose concentration was measured from the tail vein using Xpress-i glucometer (Nova Biomedical). Hyperglycemia was defined as blood glucose >[…] [Shavit-Stein et al. (2019) PLoS One 14, e0219453].
# Electroretinogram (ERG): Mice were dark-adapted for 16 hours. ERG responses to light flashes at 5 increasing intensities (0.023, 0.249, 2.44, 7.8 and 23.5 cd-s/m^2) are recorded from both eyes simultaneously. Light-adapted ERG is similarly performed following 5 minutes light adaptation [Edelshtain et al. (2019) Algal Research 43, 101607].
# C57BL/6 mice received either sham (PBS, n=5) or PARIN5 (100 nM in PBS, n=7) treatment for 7 days, starting at three days after diabetes induction by STZ injection. Retinal function was determined by ERG. Treatment included intraperitoneal (IP) injection (0.5 µl/gram, once a day) and eye drops (10 µl/eye, once a day).
# In further experiments, STZ-induced diabetic were treated with eye drops, 100 nM PARIN5 in PBS (10 µl/eye, once a day), for 5 weeks. Non-diabetic mice and diabetic non-treated mice served as control.
# ALS animal model SOD-1 = settings: SOD-1 ALS animal model; cited from earlier work
smiles,measurement,setting,value
"N=C(N)c1ccc(CC(NC(=O)CNS(=O)(=O)c2ccc3ccccc3c2)C(=O)N2CCCCC2)cc1 (racemic) [NAPAP, Nα-(2-naphthyl-sulphonyl-glycyl)-DL-p-amidinophenylalanyl-piperidine]",Growth of glioma cell lines,glioma cell lines,significantly inhibits their growth
same,Nerve conduction velocity in diabetic rats,diabetic rats,prevent the decreased nerve conduction velocity
"Cc1ccc(S(=O)(=O)N[C@H](C(=O)N[C@@H](CC(C)C)C(=O)N[C@@H](CC(=O)O)C(=O)N2CCC[C@H]2C(=O)N[C@@H](CCCNC(=N)N)C(=O)CCl)[C@@H](C)O)cc1 [PARIN5, ^37TLDPR^41-CMK] (Tos-TLDPR-CH2Cl)","Retinal function by ERG b-wave after 5 weeks of daily eye drops, versus control non-diabetic mice","[1]; 100 nM in PBS eye drops, 10 µl/eye once a day, 5 weeks, measured 2 and 5 weeks after STZ, all p>0.3, FIG. 6",no significant differences; also recorded: protected the mouse retinal function
same,Retinal function by ERG (b-wave) after 7-day treatment,"[1]; 100 nM in PBS, IP injection 0.5 µl/gram plus eye drops 10 µl/eye, once a day, 7 days, from three days after STZ, versus sham PBS, FIG. 5",preserved mouse retinal function
"CC(C)c1ccc(Cn2ccc3c4c(N)nc(NC5CC5)nc4ccc32)cc1.Cl.Cl [SCH79797, N3..Cyclopropyl-7..[[4..(1.. methylethyl)phenyl]methyl]-7H-pyrrolo[3,2-f]quinazoline-1,3-diamine dihydrochloride]",Life span of ALS model animals,ALS animal model SOD-1,increase the life span of these ALS model animals significantly
"Cc1ccc(S(=O)(=O)N[C@@H](CCCCN)C(=O)CCl)cc1 [TLCK, N-alpha-tosyl-L-lysine chloromethyl ketone]",Life span of ALS model animals,ALS animal model SOD-1,increase the life span of these ALS model animals significantly
